Legend:
Details in all cases: Table VIa; host plants sprayed; solution of 400 ppm and dilutions
Venturis inaequalis = experiment: In vivo fungicidal activity, Apple Scab (AS)
Plasmopara viticola = experiment: In vivo fungicidal activity, Grape Downy Mildew (GDM); further: ranges in brackets are in %
Botrytis cinerea = experiment: In vivo fungicidal activity, Pepper Botrytis (PB); further: ranges in brackets are in %
Pyricularia oryzae = assay type: in vivo
Cercospora beticola = experiment: In vivo fungicidal activity, Sugar Beet Cercospora (SBC); further: ranges in brackets are in %
Alternaria solani = experiment: In vivo fungicidal activity, Tomato Early Blight (TEB); further: ranges in brackets are in %
[1] = system: Erysiphe graminis f. sp. tritici; experiment: In vivo fungicidal activity, Wheat Powdery Mildew (WPM)
Septoria nodorum = experiment: In vivo fungicidal activity, Wheat Blotch (WSN)
Experimental: Test compounds are dissolved in acetone and diluted with deionized water containing about 0.05% TWEEN 20®, a polyoxyethylene sorbitan monolaurate surfactant manufactured by Atlas Chemical Industries, to give a concentration of 400 ppm. Subsequent dilutions are made with an 0.05% aqueous solution of TWEEN 20®.
Host plants are sprayed with test solution, dried and inoculated with fungi. When disease symptom development is optimal, the plants are rated for disease control according to the rating scale shown below. Each test contains inoculated treated plants, inoculated untreated plants and a reference standard. When more than one test is run, the data are averaged.

| Compound | disease control rating AS (Apple Scab) (Venturis inaequalis) | disease control rating GDM (Plasmopara viticola) | disease control rating PB (Botrytis cinerea) | disease control rating RB (Pyricularia oryzae) | disease control rating SBC (Cercospora beticola) | disease control rating TEB (Alternaria solani) | disease control rating WPM [1] | disease control rating WSN (Septoria nodorum) |
| --- | --- | --- | --- | --- | --- | --- | --- | --- |
| CCCCN(CCCC)CCC1COC2(CCC(C(C)(C)C)CC2)C1 (stereo not shown) [Compound 196] | 5 (60-74) | 5 (60-74) | 5 (60-74) | 6 (75-89) | 8 (96-99) | 0 (0) | 9 (100) | 7 (90-95) |
| CC(C)(C)C1CCC2(CC1)CC(CCNC1CCC3CCCCC3C1)CO2 (stereo not shown) [Compound 198] | 6 (75-89) | 6 (75-89) | 7 (90-95) | 0 (0) | 8 (96-99) | 6 (75-89) | 8 (96-99) | 8 (96-99) |
| CCCCCC(C)N(CC)CCC1COC2(CCC(C(C)(C)C)CC2)C1 (stereo not shown) [Compound 202] | 6 (75-89) | 5 (60-74) | 7 (90-95) | 0 (0) | 7 (90-95) | 0 (0) | 8 (96-99) | 5 (60-74) |
| CCCCC(CC)NCCC1COC2(CCC(C(C)(C)C)CC2)C1 (stereo not shown) [Compound 197] | 5 (60-74) | 7 (90-95) | 8 (96-99) | 0 (0) | 7 (90-95) | 0 (0) | 8 (96-99) | 7 (90-95) |
| CC(C)(C)C1CCC2(CC1)CC(CCNC1CCCCCC1)CO2 (stereo not shown) [Compound 195] | 6 (75-89) | 5 (60-74) | 5 (60-74) | 7 (90-95) | 7 (90-95) | 0 (0) | 7 (90-95) | 7 (90-95) |
| CCCC(CCC)NCCC1COC2(CCC(C(C)(C)C)CC2)C1 (stereo not shown) [Compound 193] | 6 (75-89) | 8 (96-99) | 7 (90-95) | 0 (0) | 6 (75-89) | 2 (15-29) | 8 (96-99) | 3 (30-44) |
| CCN(CCC1COC2(CCC(C(C)(C)C)CC2)C1)C1CCCCC1 (stereo not shown) [Compound 200] | 7 (90-95) | 5 (60-74) | 8 (96-99) | 0 (0) | 8 (96-99) | 0 (0) | 8 (96-99) | 8 (96-99) |
| CCN(CC1COC2(CCC(C(C)(C)C)CC2)C1)C1CCCCC1 (stereo not shown) [Compound 188] | 5 (60-74) | 0 (0) | 5 (60-74) | 0 (0) | 4 (45-59) | 0 (0) | 8 (96-99) | 6 (75-89) |
| CN(CC1COC2(CCC(C(C)(C)C)CC2)C1)C1CCCCC1 (stereo not shown) [Compound 187] | 4 (45-59) | 5 (60-74) | 7 (90-95) | 0 (0) | 5 (60-74) | 6 (75-89) | 9 (100) | 7 (90-95) |
| CN(CCC1COC2(CCC(C(C)(C)C)CC2)C1)C1CCCCC1 (stereo not shown) [Compound 199] | 6 (75-89) | 5 (60-74) | 7 (90-95) | 0 (0) | 3 (30-44) | 4 (45-59) | 8 (96-99) | 7 (90-95) |
| CC1CCCC(NCCC2COC3(CCC(C(C)(C)C)CC3)C2)C1 (stereo not shown) [Compound 192] | 7 (90-95) | 6 (75-89) | 8 (96-99) | 0 (0) | 7 (90-95) | 4 (45-59) | 7 (90-95) | 7 (90-95) |
| CCCCCC(C)N(C)CCC1COC2(CCC(C(C)(C)C)CC2)C1 (stereo not shown) [Compound 201] | 6 (75-89) | 7 (90-95) | 3 (30-44) | 0 (0) | 6 (75-89) | 0 (0) | 8 (96-99) | 5 (60-74) |
| CCCCCC(C)NCCC1COC2(CCC(C(C)(C)C)CC2)C1 (stereo not shown) [Compound 194] | 6 (75-89) | 7 (90-95) | 4 (45-59) | 0 (0) | 8 (96-99) | 3 (30-44) | 7 (90-95) | 7 (90-95) |
| CC(C)(C)C1CCC2(CC1)CC(CCN1CCCCC1)CO2 (stereo not shown) [Compound 203] | 0 (0) | 0 (0) | 8 (96-99) | 0 (0) | 8 (96-99) | 6 (75-89) | 8 (96-99) | 6 (75-89) |
